Values quoted from earlier work, collected in patent publication US11426379B2, “Combination of local and systemic therapies for enhanced treatment of dermatologic conditions” (The Rockefeller University, priority 2017, dated 2022).

System: rabbit skin
Conditions: intradermal injection, presence of light, reversible with beta-carotene

**Q.** For O=C1OC2(c3cc(I)c(O)c(I)c3Oc3c2cc(I)c(O)c3I)c2c(Cl)c(Cl)c(Cl)c(Cl)c21 [rose bengal, 4,5,6,7-tetrachloro-2′,4′,5′,7′-tetraiodofluorescein], which “polymorphonuclear leukocyte accumulation, histamine release and erythema” value is on record?
**A.** polymorphonuclear leukocyte accumulation and histamine release with accompanying increased erythema
